Experimental findings from ChEMBL document CHEMBL1137950, “Studies on 1-O-acetylbritannilactone and its derivative, (2-O-butyloxime-3-phenyl)-propionyl-1-O-acetylbritannilactone ester” (2004) are described below.

Each structure is given as a SMILES string. Values after ≈ are worked out from the molar mass of the structure shown.

For one assay, the system named is HL-60. Description: Compound was tested for its cytotoxic activity against human HL-60 promyelocytic leukemia cell line. Particulars: read-out: ID50 (the source's name). It counts as functional.
In another assay the test system is Bel-7402. Nature of the assay: Compound was tested for its cytotoxic activity against human Bel-7402 Hepatocellular carcinoma cell line. It counts as functional. Particulars: read-out: ID50 (the source's name).

Turning to `C=C1C(=O)O[C@@H]2CC(C)=C([C@@H](C)CCCOC(C)=O)[C@H](OC(=O)/C(Cc3ccccc3)=N/OCCCC)[C@H]12`, the IC50 in the assay on HL-60 is 4.3 µg/mL (≈ 8.18 µM); in the assay on Bel-7402, 7.2 µg/mL (≈ 13.7 µM).
The corresponding values for `C=C1C(=O)O[C@@H]2CC(C)=C([C@@H](C)CCCOC(C)=O)[C@H](O)[C@H]12` are 18.4 µg/mL (≈ 59.7 µM) and 15.6 µg/mL (≈ 50.6 µM).
